# Entries after “also recorded” stand apart in the source; their conditions may differ. Counter-ions that a name gives are not always drawn. Like-named read-outs stand apart in the source and are kept apart here.
# Assays:
# [1] = tested on: patients with multiple sclerosis; details: cited from earlier work
# [2] = tested on: patients with neurological conditions; details: meta-analysis, variety of neurological conditions; cited from earlier work
# healthy volunteers [3] = experiment: Critical Flicker Fusion Test (CFFT) in healthy volunteers; format: in vivo, human; details: for Fusion Frequency (Flicker Fusion Test), fatigue: end of the day, healthy volunteers
# Text: The flicker fusion frequency (F.F.F.) is defined as the frequency, in flickers per second, at which an interrupted light appears as a steady light. It has been established that the score made in such tests can be used as a measure of fatigue (Luczak A, et al. Ergonomics, 2005 Dec. 15; 48 (15):1770-92; Ma et al PLOS One, 2014 Feb. 5; 9 (2):e87121; Maeda et al Jpn J Radiol. 2011 August; 29 (7):483-7).
# In human healthy volunteers, fatigue can be evaluated at the end of the day, when fatigue tends to increase, using a known psychometric test, the Flicker Fusion Test as reported by Luczak A, et al. Ergonomics, 2005 Dec. 15; 48 (15):1770-92; Ma et al PLOS One, 2014 Feb. 5; 9 (2):e87121; Maeda et al Jpn J Radiol. 2011 August; 29 (7):483-7.
# In a group of 36 healthy volunteers, the change in Fusion Frequency was evaluated at several times along the day and after administration of either placebo or pitolisant monohydrochloride at increasing dosages (20, 40 or 60 mg).
# healthy volunteers [4] = experiment: Wakefulness assessed by Spectral EEG in healthy volunteers; format: in vivo, human; details: 40 mg
# [5] = tested on: human volunteers deprived of sleep; experiment: Fusion Frequency in volunteers deprived of sleep during 24 h; format: in vivo; details: 30 mg once a day
# Protocol: Pitolisant hydrochloride was administered once a day at a dose of 30 mg in human volunteers deprived of sleep during 24 h. Fatigue evaluated in these volunteers by the Fusion Frequency was not modified by either placebo or pitolisant at this dose.
# healthy volunteers [6] = experiment: Adverse effect study at high doses in healthy volunteers; format: in vivo, human
# Protocol: (§1) A group of 24 healthy volunteers received placebo or pitolisant monohydrochloride mg at doses of 160, 200 or 240 mg. This last dose corresponds to 6 times the maximum dosage recommended in narcolepsy.
# Furthermore, the rare abnormalities were reported in all treatment groups.
# [7] = Blood levels of pitolisant and metabolites in healthy volunteers; format: in vivo, human; details: 160, 200 or 240 mg, blood samples
# Protocol: as §1
# histamine H3 receptors = molecular target: T1, histamine H3 receptors (Homo sapiens, UniProt Q9Y5N1); details: 40 mg, cited from earlier work
# T1 construct: Brain Histamine H3 Receptors Occupancy; from tissue; host or cells: living human brain (in vivo PET); value cited from Rusjan et al., Br J Pharmacol 2020
# [8] = tested on: patients with Obstructive Sleep Apnea (OSA); details: 20 mg od, cited from earlier work
# patients with narcolepsy = details: 20 to 40 mg once a day, cited from earlier work
# [9] = 160, 200 or 240 mg, healthy volunteers
# T1 sequence (Q9Y5N1 whole entry): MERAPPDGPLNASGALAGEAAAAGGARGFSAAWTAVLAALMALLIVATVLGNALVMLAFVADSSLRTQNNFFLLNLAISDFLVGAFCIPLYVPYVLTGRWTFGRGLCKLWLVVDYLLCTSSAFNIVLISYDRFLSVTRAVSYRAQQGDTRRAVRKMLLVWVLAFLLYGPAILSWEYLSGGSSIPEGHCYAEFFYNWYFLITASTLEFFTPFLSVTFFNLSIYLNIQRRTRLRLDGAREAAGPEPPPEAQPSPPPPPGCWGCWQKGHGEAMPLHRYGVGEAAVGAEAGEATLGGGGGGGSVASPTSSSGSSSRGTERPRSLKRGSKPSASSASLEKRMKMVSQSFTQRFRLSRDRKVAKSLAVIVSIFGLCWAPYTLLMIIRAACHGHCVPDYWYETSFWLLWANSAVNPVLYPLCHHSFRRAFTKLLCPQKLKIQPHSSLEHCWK
structure (smiles),measurement,setting,value
"NC12CC3CC(CC(C3)C1)C2 [Amantadine, amantadine]",Adverse events versus placebo,[1],more frequent adverse events
same,Improving multiple sclerosis fatigue versus placebo,[1],not superior to placebo
COC(=O)C(c1ccccc1)C1CCCCN1 (stereo not shown) [methylphenidate],Adverse events versus placebo,[1],more frequent adverse events
same,Improving multiple sclerosis fatigue versus placebo,[1],not superior to placebo
NC(=O)C[S+]([O-])C(c1ccccc1)c1ccccc1 (stereo not shown) [modafinil],Effect on EDS,[2],generally effective
same,Effect on fatigue,[2],without clear effect
same,Adverse events versus placebo,[1],more frequent adverse events
same,Improving multiple sclerosis fatigue versus placebo,[1],not superior to placebo
Clc1ccc(CCCOCCCN2CCCCC2)cc1 [pitolisant monohydrochloride],"Fusion Frequency (Flicker Fusion Test), fatigue",healthy volunteers [3]; 60 mg orally,reversed the alteration
same,"Fusion Frequency (Flicker Fusion Test), fatigue","healthy volunteers [3]; 60 mg orally, listed as pitolisant hydrochloride",significantly improved
same,"Flicker Fusion Test, fatigue (conclusion)","healthy volunteers [3]; 30 to 40 mg treatment, conclusion over examples 1 and 2",not improved
same,"Fusion Frequency (Flicker Fusion Test), fatigue","healthy volunteers [3]; lower doses (20, 40 mg)",failed. to provide a significant change
same,Wakefulness by Spectral EEG,healthy volunteers [4],improved significantly
same,Fatigue evaluated by the Fusion Frequency,[5]; listed as Pitolisant hydrochloride,not modified
same,Number and nature of adverse events versus placebo,healthy volunteers [6]; [9],did not differ
same,Blood level of pitolisant and metabolites,[7],dose proportionality
same,Occupancy of histamine H3 receptors (mean±SD),"histamine H3 receptors; PET scan, healthy volunteers",84±7%
same,Occupancy of the brain histamine H3-receptors (in words),histamine H3 receptors,high occupancy
same,SF evaluated with the Pichot scale,"[8]; OSA, trial of Dauvilliers et al. 2020",statistically different from placebo
same,EDS in patients with OSA,[8]; two trials,reduced
same,EDS and cataplexy in patients with narcolepsy,patients with narcolepsy; listed as Pitolisant monohydrochloride,shown to improve
"Clc1ccc(CCCOCCCN2CCCCC2)cc1 [pitolisant, 3-(4-Chlorophenyl) propyl 3-piperidinopropyl ether]",Fatigue evaluated by the Fusion Frequency,[5],not improved
same,Safety and tolerability,"healthy volunteers [6]; 160 mg, 200 mg and 240 mg (doses up to 240 mg od)",without overt adverse effect; also recorded: safe and well tolerated
same,"Laboratory parameters, vital signs, physical examination and ECG parameters",healthy volunteers [6]; [9],No significant abnormalities
same,EDS and cataplexy in patients with narcolepsy,patients with narcolepsy,significant effect

# Reference: patent US20250205215A1, “NOVEL USE OF PITOLISANT FOR TREATING SEVERE FATIGUE” (BIOPROJET, priority 2022, published 2025)
